Measured values as given in US20040148991A1, “Method and apparatus for dissolving urea” (priority 2003, published 2004).

Test: Urea dissolution time in water at 50/50 wt/wt urea/water concentration
Assay type: physicochemical
Conditions: for dissolution time faster than control test: versus control 12 minutes
Description: The next step of the method of the present invention comprises mixing the urea prills and the water so as to form a mixture. After the mixture is formed, the mixture of urea and water is then allowed to stand for an amount of time sufficient to allow the temperature of the mixture to reach a predetermined temperature. In a preferred embodiment, the predetermined temperature is between about 19° C. and 24° C., and more preferably, about 23° C. The amount of time required for the temperature of the mixture to reach the predetermined temperature depends upon the amount of mixture in mixing container 12. During this time period in which the mixture is allowed to stand, the temperature of the mixture is monitored with temperature sensor 20. When the temperature of the mixture reaches the predetermined temperature, mixing of the urea/water mixture is resumed and continues until the urea completely dissolves in the water. The time for urea dissolution is measured from the moment the mixing resumes to the point in time when the urea becomes completely dissolved in the water. The solution is outputted from mixing container 12 via outlet 14.
A series of tests were conducted in order to determine the urea dissolution time when various amounts of water were initially added to the urea and wherein additional amounts of water were subsequently added to attain the 50/50 wt/wt urea/water concentration. A control test was first conducted in order to obtain reference data. About 40 grams of urea prills were mixed with an equal amount of water, i.e. 40 grams (or milliliters). The mixture was not allowed to stand for any amount of time. Thus, the mixing step began as soon as 40 grams of urea and 40 grams of water were added to mixing container 12. The time for the urea to completely dissolve was about twelve (12) minutes and is indicated by numeral 100 in the curve of FIG. 2.
In the first test, about 40 grams of urea and 10 grams of water were deposited into mixing container 12. The mixture was then mixed or stirred, and allowed to stand until the temperature of the mixture reached about room temperature or about 23° C. Next, an amount of water necessary to achieve a urea/water concentration of 50/50 wt/wt was added to the mixture. Since the initial amount of water was 10 grams , 30 grams of water were added to the mixture to achieve the desired 50/50 wt/wt concentration. The urea and water were mixed again. The urea completely dissolved in eight (8) minutes after the 50/50 wt/wt urea/water concentration was achieved. This is indicated by numeral 102 on the curve in FIG. 2. The dissolution time was about 33% faster than the control test dissolution time of twelve (12) minutes.
In the next test, about 40 grams of urea and 15 grams of water were deposited into mixing container 12. The mixture was then mixed or stirred, and allowed to stand until the temperature of the mixture reached about room temperature or about 23° C. Next, an amount of water necessary to achieve a 50/50 wt/wt urea/water concentration was added to the mixture. Since the initial amount of water was 15 grams, 25 grams of water were added to the mixture to achieve the desired 50/50 wt/wt urea/water concentration. The urea and water were mixed again. The urea completely dissolved in seven (7) minutes after the 50/50 wt/wt urea/water concentration was achieved. This is indicated by numeral 104 on the curve in FIG. 2. The dissolution time was about 42% faster than the control test dissolution time of twelve (12) minutes.
In the next test, about 40 grams of urea and 20 grams of water were deposited into mixing container 12. The mixture was then mixed or stirred, and allowed to stand until the temperature of the mixture reached about room temperature or about 23° C. Next, an amount of water necessary to achieve a urea/water concentration of 50/50 wt/wt was added to the mixture. […]

## NC(N)=O [urea]
Test 1: 10 g water initially
  dissolution time faster than control test: about 33%
Test 1: 40 g urea + 10 g water initially, stand until about 23° C., then 30 g water added to 50/50 wt/wt
  time for the urea to completely dissolve: 8 min
Test 2: 15 g water initially
  dissolution time faster than control test: about 42%
Test 2: 40 g urea + 15 g water initially, stand until about 23° C., then 25 g water added to 50/50 wt/wt
  time for the urea to completely dissolve: 7 min
Test 3: 20 g water initially
  dissolution time faster than control test: about 58%
Test 3: 40 g urea + 20 g water initially, stand until about 23° C., then 20 g water added to 50/50 wt/wt
  time for the urea to completely dissolve: 5 min
Test 4: 25 g water initially
  dissolution time faster than control test: about 67%
Test 4: 40 g urea + 25 g water initially, stand until about 23° C., then 15 g water added to 50/50 wt/wt
  time for the urea to completely dissolve: 4 min
Test 5: 40 g urea + 40 g water, mixed, stand until about 23° C., mixed again
  time for the urea to completely dissolve: 3 min
Test 5: 40 g water initially
  dissolution time faster than control test: about 75%
Control test: 40 g urea prills + 40 g water, mixture not allowed to stand
  time for the urea to completely dissolve: ~12 min
